Reference: patent US7951403B2, “Method of making pharmaceutical multiparticulates” (Pfizer Inc., priority 2003, dated 2011)

Experiment: Azithromycin dihydrate crystallinity in molten carrier mixtures with varying water, by PXRD
Format: physicochemical
Experimental: Another way to determine the activity of volatile species in crystalline drug at the processing conditions is by measuring the change in the crystalline state of the drug as a function of the amount of volatile species present in the molten mixture. A series of blends of the crystalline drug, the carrier, and varying amounts of volatile species are prepared and placed into sealed containers. The containers are then heated to the processing temperature used to form the multiparticulates and held at this temperature for a period of time, such as 90 minutes. During this time, a sample of the container's atmosphere, i.e., the container's “headspace,” can be taken and the partial pressure of volatile species in the headspace can be measured using standard techniques, such as by gas chromatography. The containers are then cooled and the concentration of the desired crystalline form of the drug in each sample can be determined using standard techniques, as described below. The concentration of the desired crystalline form of the drug in the sample is then plotted versus the amount of volatile species included in the blend or the concentration of volatile species present in the headspace. […] The amount of the desired crystalline form of the drug in the samples and in multiparticulates can be determined using Powder X-Ray Diffraction (PXRD) analysis. In an exemplary procedure, PXRD analysis may be performed on a Bruker AXS D8 Advance diffractometer. In this analysis, samples of about 500 mg are packed in Lucite sample cups and the sample surface smoothed using a glass microscope slide to provide a consistently smooth sample surface that is level with the top of the sample cup. Samples are spun in the φ plane at a rate of 30 rpm to minimize crystal orientation effects. The X-ray source (S/B KCuα, λ=1.54 Å) is operated at a voltage of 45 kV and a current of 40 mA. Data for each sample are collected over a period of about 20 to 60 minutes in continuous detector scan mode at a scan speed of about 1 to 15 seconds/step and a step size of 0.02°/step. Diffractograms are collected over the 2θ range of 4° to 30°. The crystallinity of the test sample is determined by comparison with two or more calibration standards consisting of physical mixtures of crystalline drug and carrier. Each physical mixture is blended together 15 minutes on a Turbula mixer. Using the instrument software, the area under the diffractogram curve is integrated over the 2θ range using a linear baseline. This integration range includes as many drug-specific peaks as possible while excluding carrier-related peaks. A linear calibration curve of percent crystalline drug versus the area under the diffractogram curve is generated from the calibration standards. The crystallinity of the test sample is then determined using these calibration results and the area under the curve for the test sample. Results are reported as a mean percent drug crystallinity by crystal mass. The amount of water required to maintain the dihydrate form of azithromycin while forming multiparticulates by a melt-congeal process was determined as follows. The composition of the multiparticulates was 50 wt % azithromycin dihydrate, 46 wt % of the matrix excipient COMPRITOL 888 ATO (a mixture of 13 to 21 wt % glyceryl mono-behenate, 40 to 60 wt % glyceryl di-behenate, and about 35 wt % glyceryl tri-behenate from Gattefossé Corporation of Paramus, N.J.), and 4 wt % of the poloxamer dissolution enhancer PLURONIC F127 (polyoxyethylene-polyoxypropylene block copolymer, from BASF Corporation of Mt. Olive, N.J.). Mixtures of these materials containing varying amounts of water were prepared and analyzed by PXRD. To form each mixture, 100 g azithromycin dihydrate, 92 g of the COMPRITOL 888 ATO, and 8 g of the PLURONIC F127 were added to a water-jacketed stainless steel sealed vessel. Various amounts of water were added to each mixture to obtain varying water concentrations. […]

Azithromycin Dihydrate Crystallinity (Water in melt sample 0.35 wt %, same mixture, 90 min at 90° C.): 57 wt % | Azithromycin Dihydrate Crystallinity (Water in melt sample 0.45 wt %, same mixture, 90 min at 90° C.): 68 wt % | Azithromycin Dihydrate Crystallinity (Water in melt sample 1.88 wt %, same mixture, 90 min at 90° C.): 91 wt % | Azithromycin Dihydrate Crystallinity (Water in melt sample 2.22 wt %, same mixture, 90 min at 90° C.): 93 wt % | Azithromycin Dihydrate Crystallinity (Water in melt sample 3.08 wt %, 50/46/4 azithromycin dihydrate/COMPRITOL 888 ATO/PLURONIC F127, stirred 90 min at 90° C., sealed vessel): 95 wt % | water needed in the mixtures to maintain high levels of azithromycin dihydrate crystallinity in the melt (melt at 90° C., COMPRITOL 888 ATO/PLURONIC F127 carrier): at least 2.2 wt %
SMILES: CC[C@H]1OC(=O)[C@H](C)[C@@H](O[C@H]2C[C@@](C)(OC)[C@@H](O)[C@H](C)O2)[C@H](C)[C@@H](O[C@@H]2O[C@H](C)C[C@H](N(C)C)[C@H]2O)[C@](C)(O)C[C@@H](C)CN(C)[C@H](C)[C@@H](O)[C@]1(C)O [Azithromycin Dihydrate, 9a-aza-9a-methyl-9-deoxo-9a-homoerythromycin A]
